Assay results: patent US20200246365A1, “COMPOUNDS, PHARMACEUTICAL COMPOSITIONS AND USE THEREOF AS INHIBITORS OF RAN GTPASE” (THE ROYAL INSTITUTION FOR THE ADVANCEMENT OF LEARNING / …, priority 2017, published 2020)

Assays:
53BP1 = 53BP1 immunofluorescence after gamma-irradiation in TOV112D cells; type: cell-based, human
cleaved PARP = assay: Apoptosis by PARP cleavage (Western blot); type: cell-based, human; conditions: 96 hours after treatment
Experimental: Cells were lysed with RIPA buffer containing protease inhibitors. Whole cell lysates were run through a Bradford assay (Thermo Fisher Scientific) for protein quantification. Around 25-50 μg of proteins were separated onto 12.5% SDS-PAGE and transferred onto nitrocellulose membranes. The resultant blots were probed with Ran (1:10000, sc-271376 Santa Cruz Biotechnology, Dallas, Tex.), cleaved PARP (1:1000, #9541, Cell Signaling Technology Inc., Danvers, Mass.), GAPDH (1:2500, #2118, Cell Signaling Technology Inc.) or beta-actin (1:50000, ab6276, Abcam Inc., Toronto, ON, Canada) primary antibodies overnight at 4° C. then with peroxidase-conjugated secondary antibodies for 2 hours at room temperature. Proteins were detected using enhanced chemiluminescence (Thermo Fisher Scientific).

[1] = test system: other aneuploid EOC cells; assay: IncuCyte cell proliferation assay, other aneuploid EOC cell lines; type: cell-based, human; conditions: 40 μM
Experimental: (§1) The human EOC cell lines used (TOV81D, TOV112D, OV90, TOV21G, OV866(2), TOV1369(R), OV1369(R2), TOV1946, OV1946, TOV2295(R), OV4485) were derived in our laboratory from patients' tumors (TOV) or ascites (OV). All EOC cell lines were maintained in a low oxygen condition of 7% O2 and 5% CO2 and grown in OSE medium (Wisent, Montreal, QC) supplemented with 10% FBS (Wisent), 0.5 μg/mL amphotericin B (Wisent) and 50 μg/mL gentamicin (Life Technologies Inc., Burlington, ON). The human retinal epithelial cell line ARPE-19 was purchased from American Type Culture Collection (ATCC, Manassas, Va.) and maintained in DMEM-F12 (Wisent) supplemented with 10% FBS (Wisent), 0.5 μg/mL amphotericin B (Wisent) and 50 μg/mL gentamicin (Life Technologies Inc.).
Cells (2,000 cells/well) were plated in a 96-well plate. The next day, compounds were added at the indicated concentrations. Following treatment, cell confluence was imaged by phase contrast using the IncuCyte live cell monitoring system (Essen BioScience, Ann Arbor, Mich.). Frames were captured at 2-hour intervals using a 10× objective. For Ran knock down experiments, cells were seeded in a 96-well plate (4,000 cells/well) directly after transfection. Cell confluence monitoring started the next day as described above.
(§2) Small molecules inhibitors of Ran were dissolved in 100% dimethyl sulfoxide (DMSO) and then further diluted in complete culture media for in vitro experiments. Drugs were added 24 hours after seeding.

ARPE-19 cells = assay: Clonogenic survival assay, ARPE-19; type: cell-based, human
Experimental: as §1
(§3) Clonogenic assays were performed as previously described. Colonies were counted under a stereo microscope and reported as percent of control. IC50 values were determined using Graph Pad Prism 5 software (GraphPad Software Inc., San Diego, Calif.). Each experiment was performed in duplicate and repeated three times. Sensitivity of the cell lines to small molecules inhibitors of Ran was assessed using a concentration range of 0-50 μM.
as §2

RhoA = RhoA (Homo sapiens, UniProt P61586); assay: RhoA activation ELISA in TOV112D cells; type: cell-based; conditions: vs DMSO
[2] = test system: TOV112D cells overexpressing DA Ran; assay: Cell survival of TOV112D cells transfected with Ran WT or dominant active mutant; type: cell-based, human
Ran-GTP [3] = molecular target: T1, Ran-GTP (Homo sapiens, UniProt P62826); assay: Ran-GTP immunofluorescence in TOV112D cells; type: cell-based; conditions: TOV112D cells vs DMSO-treated
Experimental: M36 and R28-treated and control TOV112D cells grown on coverslips were washed with 1×PBS, fixed in 4% paraformaldehyde and permeabilized with 0.25% Triton X-100 (Sigma-Aldrich Inc.). After blocking (4% BSA and 4% FBS in PBS), coverslips were incubated with the monoclonal anti-RanGTP antibody (26915, NewEastBioscences) diluted 1:100 in blocking buffer for 2 hours at room temperature. Subsequently, samples were incubated with Cy-5 secondary antibody (1:500, Life Technologies Inc.) for 1 hour and coverslips were mounted onto slides using Prolong® Gold anti-fade reagent with DAPI (Life Technologies Inc.). Samples were visualized under a Zeiss microscope (Zeiss observer Z1) with a 20× objective.

TOV112D cells = assay: Clonogenic survival assay, TOV112D; type: cell-based, human
Experimental: as §1, §3, §2

[4] = test system: prostate cancer cell lines (LNCaP, 22RV1, PC3, DU145); assay: Cell proliferation, prostate cancer cell lines; type: cell-based
[5] = Tolerance test in NRG mice; type: in vivo; conditions: daily i.p. 75 mg/kg for 15 days
Experimental: For the tolerance test, M36 and QR20 compounds were dissolved in DMSO 10%, Kolliphor® EL 10%, PEG-400 20% and PBS 60% and injected intraperitoneally into 6-week-old female Nod Rag Gamma (NRG) mice (The Jackson laboratory, Bar Harbor, Me.) daily at 75 mg/kg. During this study, mice (n=3) were monitored for survival and weight loss/gain.

Cdc42 = Cdc42 (Homo sapiens, UniProt P60953); assay: Cdc42 activation ELISA in TOV112D cells; type: cell-based; conditions: vs DMSO
γH2AX foci = γH2AX foci immunostaining in TOV112D cells; type: cell-based, human
Ran-GTP [6] = molecular target: T1, Ran-GTP; assay: Ran activation (Ran-GTP pull-down) assay in TOV112D cells; type: cell-based; conditions: 1 hour treatment, vs DMSO
Experimental: Cells were seeded onto 6-well tissue culture plates in such a way that cell confluence reaches approximately 70% the day of experiment. The day of experiment cells were treated for 1 hour with the indicated compounds prior to protein extraction and quantification. Assays were performed using the Ran activation assay kit (Cell Biolabs). Briefly, 400 μg of lysates were incubated for one hour at 4° C. with agarose beads conjugated to RANBP1, which specifically binds Ran-GTP. Beads were pelleted, washed, and re-suspended in SDS-PAGE buffer, followed by immunoblotting with an anti-Ran antibody.

Rac1-GTP = Rac1-GTP (Homo sapiens, UniProt P63000); assay: Rac1-GTP pull-down assay; type: cell-based; conditions: 50 μM M36 (FIG. 7F)
[7] = molecular target: T2, recombinant human Ran protein (Homo sapiens, UniProt P62826); assay: Surface Plasmon Resonance (SPR) binding to immobilized Ran; conditions: different compound concentrations, reached saturation
T2 construct: Recombinant Ran protein was purchased from Sigma-Aldrich Inc. (R3152)
Experimental: SPR experiments were carried out using the Biacore 3000 system. Recombinant Ran protein was purchased from Sigma-Aldrich Inc. (R3152). The running buffer contained PBS, pH7.4, 1 mM GDP, 2 mM MgCl2 and 0.2% DMSO. The regeneration buffer contained 10 mM glycine (pH 2.5). Ran-GDP protein was immobilized onto a CM5 chip; samples of compounds in running buffer were injected at 30 μL/min for 10 minutes contact time followed by 5 minutes regeneration. Kd was calculated using the GraphPad Prism 5 software.

RAD51/Geminin foci (HR) = assay: RAD51/Geminin foci after gamma-irradiation in TOV112D cells; type: cell-based, human
[8] = Pharmacokinetics in CD1 mice; type: in vivo
Experimental: For the pharmacokinetic studies, 6-week-old female CD1 mice (Charles River laboratories, Senneville, QC, Canada) received a single intravenous or intraperitoneal injection of M36 or QR20 (50 mg/kg), dissolved in DMSO 10%, Kolliphor® EL 10%, PEG-400 20% and PBS 60% (QR20 was also dissolved in DMSO 10%, PBS 90%). For each time point (15 minutes, 30 minutes, […], 1 hour, 2 hours and 6 hours), 3 mice were sacrificed and blood was collected by cardiac puncture. Thereafter, the plasma level of each compound was measured by mass spectrometry.

Chain of Cdc42 (P60953 whole entry): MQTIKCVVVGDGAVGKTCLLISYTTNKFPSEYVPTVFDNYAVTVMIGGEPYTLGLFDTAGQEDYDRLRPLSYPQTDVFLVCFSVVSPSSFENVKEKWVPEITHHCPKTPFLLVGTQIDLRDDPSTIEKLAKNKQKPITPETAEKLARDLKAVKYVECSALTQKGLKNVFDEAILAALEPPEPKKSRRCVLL
Chain of RhoA (P61586 whole entry): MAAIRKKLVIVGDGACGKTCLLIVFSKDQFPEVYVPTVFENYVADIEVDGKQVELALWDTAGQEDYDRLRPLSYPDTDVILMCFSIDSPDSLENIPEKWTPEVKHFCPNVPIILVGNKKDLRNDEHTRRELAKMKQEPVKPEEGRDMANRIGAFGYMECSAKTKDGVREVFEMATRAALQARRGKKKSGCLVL

## NC(=S)[C@@H]1O[C@H](COCc2ccc(F)cc2)[C@@H](OCc2ccc(F)cc2)[C@H]1OCc1ccc(F)cc1 [M36]
53BP1; after gamma-irradiation
  NHEJ pathway (53BP1 foci): inhibiting the HR and NHEJ pathways
53BP1; cytoplasmic staining
  nuclear localization of 53BP1: interferes with the nuclear localization of 53BP1
Cleaved PARP
  apoptosis (cleaved PARP on Western blot): induced cell apoptosis
[1]
  cell proliferation of other aneuploid EOC cells: inhibited cell proliferation
ARPE-19 cells; different concentrations
  effect on normal ARPE-19 cell line in detailed clonogenic assay: almost no effect
ARPE-19 cells; single dose 10 μM
  colony formation of ARPE-19 cells: without affecting the ARPE-19 cells
RhoA
  activation of RhoA (RhoA-GTP levels): does not inhibit the activation
[2]
  inhibition of cell proliferation with DA Ran overexpression: attenuated when DA Ran was overexpressed
Ran-GTP [3]
  Ran-GTP levels by immunofluorescence: no detectable levels of Ran-GTP
TOV112D cells; Homo sapiens, TOV112D, read-out: IC50 value for the TOV112D cell line by clonogenic assay
  IC50: 10 ± 0.36 µM
TOV112D cells; single dose 10 μM
  colony formation of TOV112D cells: inhibited colony formation of TOV112D cells
[4]
  effect on prostate cancer cell lines: also effective in prostate cancer cell lines
[5]
  tolerance: well tolerated
  weight loss: no weight loss
Cdc42
  activation of Cdc42 (Cdc42-GTP levels): does not inhibit the activation
γH2AX foci; 48 hours or 72 hours treatment
  DNA damage (γH2AX foci): increases DNA damage
γH2AX foci; after gamma-irradiation
  DNA double-strand breaks repair (γH2AX foci clearance): delays DNA double-strand breaks repair
Ran-GTP [6]
  active Ran-GTP levels (pull-down): concentration-dependent decrease in Ran-GTP levels
Rac1-GTP
  Rac1-GTP levels (pull-down): no decreased levels of Rac1-GTP
[7]
  binding to the immobilized Ran protein: concentration-dependent binding
RAD51/Geminin foci (HR)
  HR pathway (RAD51/Geminin foci): inhibiting the HR and NHEJ pathways
[8]; 50 mg/kg
  pharmacokinetics profile based on AUC values: good pharmacokinetics profiles
[8]; 50 mg/kg single injection
  absorption after intraperitoneal vs intravenous injection (plasma levels): less absorbed than compound QR20
  persistence in the circulation: persists longer in the circulation
